Laboratory results reported in US20260262643A1, “HERBICIDAL BENZOXAZINES” (FMC CORPORATION, priority 2022, published 2026).

Key:
[1] = test system: barnyardgrass; test: Test C preemergence; type: in vivo, Echinochloa crusgalli
Outline: (§1)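 Visual injury ratings on a 0–100 scale (100 = complete control) were made against untreated controls 10 days after treatment in the greenhouse. Compounds, formulated with surfactant in non-phytotoxic solvent, were sprayed on soil preemergence or onto one- to two-leaf plants 2–10 cm tall postemergence.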

[2] = test system: blackgrass; test: Test C preemergence; type: in vivo, Alopecurus myosuroides
Outline: as §1

[3] = test system: corn; test: Test C preemergence; type: in vivo, Zea mays
Outline: as §1

[4] = test system: green foxtail; test: Test C preemergence; type: in vivo, Setaria viridis
Outline: as §1

[5] = test system: kochia; test: Test C preemergence; type: in vivo, Bassia scoparia
Outline: as §1

[6] = test system: oat, wild; test: Test C preemergence; type: in vivo, Avena fatua
Outline: as §1

[7] = test system: pigweed, palmer; test: Test C preemergence; type: in vivo, Amaranthus palmeri
Outline: as §1

[8] = test system: ragweed; test: Test C preemergence; type: in vivo, Ambrosia artemisiifolia
Outline: as §1

[9] = test system: soybean; test: Test C preemergence; type: in vivo, Glycine max
Outline: as §1

[10] = test system: wheat; test: Test C preemergence; type: in vivo, Triticum aestivum
Outline: as §1

[11] = test system: barnyardgrass; test: Test C postemergence; type: in vivo, Echinochloa crusgalli; conditions: 10 days, 0 to 100 scale, 0 no effect, 100 complete control
Outline: as §1

[12] = test system: blackgrass; test: Test C postemergence; type: in vivo, Alopecurus myosuroides; conditions: 10 days, 0 to 100 scale, 0 no effect, 100 complete control
Outline: as §1

[13] = test system: corn; test: Test C postemergence; type: in vivo, Zea mays; conditions: 10 days, 0 to 100 scale, 0 no effect, 100 complete control
Outline: as §1

[14] = test system: green foxtail; test: Test C postemergence; type: in vivo, Setaria viridis; conditions: 10 days, 0 to 100 scale, 0 no effect, 100 complete control
Outline: as §1

[15] = test system: kochia; test: Test C postemergence; type: in vivo, Bassia scoparia; conditions: 10 days, 0 to 100 scale, 0 no effect, 100 complete control
Outline: as §1

[16] = test system: oat, wild; test: Test C postemergence; type: in vivo, Avena fatua; conditions: 10 days, 0 to 100 scale, 0 no effect, 100 complete control
Outline: as §1

[17] = test system: pigweed, palmer; test: Test C postemergence; type: in vivo, Amaranthus palmeri; conditions: 10 days, 0 to 100 scale, 0 no effect, 100 complete control
Outline: as §1

[18] = test system: ragweed; test: Test C postemergence; type: in vivo, Ambrosia artemisiifolia; conditions: 10 days, 0 to 100 scale, 0 no effect, 100 complete control
Outline: as §1

[19] = test system: ryegrass, Italian; test: Test C postemergence; type: in vivo, Lolium multiflorum; conditions: 10 days, 0 to 100 scale, 0 no effect, 100 complete control
Outline: as §1

[20] = test system: soybean; test: Test C postemergence; type: in vivo, Glycine max; conditions: 10 days, 0 to 100 scale, 0 no effect, 100 complete control
Outline: as §1

[21] = test system: wheat; test: Test C postemergence; type: in vivo, Triticum aestivum; conditions: 10 days, 0 to 100 scale, 0 no effect, 100 complete control
Outline: as §1

[22] = test system: galium; test: Test C postemergence; type: in vivo, Galium aparine; conditions: 10 days, 0 to 100 scale, 0 no effect, 100 complete control
Outline: as §1

[23] = test system: horseweed; test: Test C postemergence; type: in vivo, Erigeron canadensis; conditions: 10 days, 0 to 100 scale, 0 no effect, 100 complete control
Outline: as §1

[24] = test system: barnyardgrass; test: Test D flooded paddy test; type: in vivo, Echinochloa crus-galli; conditions: 250 g ai/ha, applied to paddy water, visual rating after 13 to 14 days, scale 0 to 100 (0 no effect, 100 complete control)
Outline: (§2)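 Rating scale 0–100 (0 no effect, 100 complete control), visual, versus controls. Readout at 13–14 days after in-water application to 2-leaf plants in pots flooded 3 cm deep.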

[25] = test system: ducksalad; test: Test D flooded paddy test; type: in vivo, Heteranthera limosa; conditions: 250 g ai/ha, applied to paddy water, visual rating after 13 to 14 days, scale 0 to 100 (0 no effect, 100 complete control)
Outline: as §2

[26] = test system: rice; test: Test D flooded paddy test; type: in vivo, Oryza sativa; conditions: 250 g ai/ha, applied to paddy water, visual rating after 13 to 14 days, scale 0 to 100 (0 no effect, 100 complete control)
Outline: as §2

[27] = test system: sedge, umbrella; test: Test D flooded paddy test; type: in vivo, Cyperus difformis; conditions: 250 g ai/ha, applied to paddy water, visual rating after 13 to 14 days, scale 0 to 100 (0 no effect, 100 complete control)
Outline: as §2

[28] = Preemergence, 31 g ai/ha, 0 to 100 scale, 0 no effect, 100 complete control
[29] = Test C, preemergence, 125 g ai/ha, 0 to 100 scale (0 no effect, 100 complete control)

Structure (SMILES): CCC(O)(CC)c1ncn(-c2ccc(C)c(C(=O)N3C[C@H](C)Oc4c(Cl)cccc43)c2)n1 [Compound 180]
- Plant response rating, Barnyardgrass [1, 28]: 0
- Barnyardgrass plant response rating [1, 29]: 60
- Plant response rating, Blackgrass [2, 28]: 0
- Blackgrass plant response rating [2, 29]: 20
- Plant response rating, Corn [3, 28]: 0
- Corn plant response rating [3, 29]: 0
- Plant response rating, Foxtail, Green [4, 28]: 30
- Foxtail, Green plant response rating [4, 29]: 70
- Plant response rating, Kochia [5, 28]: 0
- Kochia plant response rating [5, 29]: 0
- Plant response rating, Oat, Wild [6, 28]: 0
- Oat, Wild plant response rating [6, 29]: 50
- Plant response rating, Pigweed, Palmer [7, 28]: 0
- Pigweed, Palmer plant response rating [7, 29]: 60
- Plant response rating, Ragweed [8, 28]: 0
- Ragweed plant response rating [8, 29]: 20
- Plant response rating, Soybean [9, 28]: 0
- Soybean plant response rating [9, 29]: 50
- Plant response rating, Wheat [10, 28]: 0
- Wheat plant response rating [10, 29]: 0
- Plant response rating, Barnyardgrass ([11]; 125 g ai/ha, postemergence): 20
- Plant response rating, Barnyardgrass ([11]; Postemergence, 31 g ai/ha): 10
- Plant response rating, Blackgrass ([12]; 125 g ai/ha, postemergence): 10
- Plant response rating, Blackgrass ([12]; Postemergence, 31 g ai/ha): 0
- Plant response rating, Corn ([13]; 125 g ai/ha, postemergence): 10
- Plant response rating, Corn ([13]; Postemergence, 31 g ai/ha): 0
- Plant response rating, Foxtail, Green ([14]; 125 g ai/ha, postemergence): 20
- Plant response rating, Foxtail, Green ([14]; Postemergence, 31 g ai/ha): 10
- Plant response rating, Kochia ([15]; 125 g ai/ha, postemergence): 50
- Plant response rating, Kochia ([15]; Postemergence, 31 g ai/ha): 30
- Plant response rating, Oat, Wild ([16]; 125 g ai/ha, postemergence): 70
- Plant response rating, Oat, Wild ([16]; Postemergence, 31 g ai/ha): 0
- Plant response rating, Pigweed, Palmer ([17]; 125 g ai/ha, postemergence): 70
- Plant response rating, Pigweed, Palmer ([17]; Postemergence, 31 g ai/ha): 30
- Plant response rating, Ragweed ([18]; 125 g ai/ha, postemergence): 60
- Plant response rating, Ragweed ([18]; Postemergence, 31 g ai/ha): 40
- Plant response rating, Ryegrass, Italian ([19]; 125 g ai/ha, postemergence): 50
- Plant response rating, Ryegrass, Italian ([19]; Postemergence, 31 g ai/ha): 0
- Plant response rating, Soybean ([20]; 125 g ai/ha, postemergence): 100
- Plant response rating, Soybean ([20]; Postemergence, 31 g ai/ha): 90
- Plant response rating, Wheat ([21]; 125 g ai/ha, postemergence): 20
- Plant response rating, Wheat ([21]; Postemergence, 31 g ai/ha): 10
- Plant response rating, Galium ([22]; 125 g ai/ha, postemergence): 90
- Plant response rating, Galium ([22]; Postemergence, 31 g ai/ha): 70
- Plant response rating, Horseweed ([23]; 125 g ai/ha, postemergence): 0
- Plant response rating, Horseweed ([23]; Postemergence, 31 g ai/ha): 0
- Plant response rating, Barnyardgrass (Flood) [24]: 0
- Plant response rating, Ducksalad (Flood) [25]: 65
- Plant response rating, Rice (Flood) [26]: 0
- Plant response rating, Sedge, Umbrella (Flood) [27]: 40
